# From patent US9963442B2, “Pyridones as herbicides” (E I DU PONT DE NEMOURS AND COMPANY, priority 2014, dated 2018)
# Experiments:
# Format in all cases: in vivo
# [1] = test system: Italian ryegrass (Lolium multiflorum); test: Test A preemergence, directed soil spray; conditions: approx. 10 days
# From the text: (§1) Seeds of plant species selected from barnyardgrass (Echinochloa crus-galli), kochia (Kochia scoparia), ragweed (common ragweed, Ambrosia elatior), Italian ryegrass (Lolium multiflorum), giant foxtail (Setaria faberii), and pigweed (Amaranthus retroflexus) were planted into a blend of loam soil and sand and treated preemergence with a directed soil spray using test chemicals formulated in a non-phytotoxic solvent mixture which included a surfactant. At the same time, plants selected from these weed species and also wheat (Triticum aestivum), corn (Zea mays), blackgrass (Alopecurus myosuroides), and galium (catchweed bedstraw, Galium aparine) were planted in pots containing the same blend of loam soil and sand and treated with postemergence applications of test chemicals formulated in the same manner. Plants ranged in height from 2 to 10 cm and were in the one- to two-leaf stage for the postemergence treatment. Treated plants and untreated controls were maintained in a greenhouse for approximately 10 days, after which time all treated plants were compared to untreated controls and visually evaluated for injury. Plant response ratings, summarized in Table A, are based on a 0 to 100 scale where 0 is no effect and 100 is complete control. A dash (-) response means no test result.
# [2] = test system: giant foxtail (Setaria faberii); test: Test A preemergence, directed soil spray; conditions: approx. 10 days
# From the text: as §1
# [3] = test system: pigweed (Amaranthus retroflexus); test: Test A preemergence, directed soil spray; conditions: approx. 10 days
# From the text: as §1
# [4] = test system: barnyardgrass (Echinochloa crus-galli); test: Test A preemergence, directed soil spray; conditions: approx. 10 days
# From the text: as §1
# [5] = test system: ragweed (common ragweed, Ambrosia elatior); test: Test A preemergence, directed soil spray; conditions: approx. 10 days
# From the text: as §1
# [6] = test system: kochia (Kochia scoparia); test: Test A preemergence, directed soil spray; conditions: approx. 10 days
# From the text: as §1
# [7] = test system: sedge, umbrella (small-flower umbrella sedge, Cyperus difformis); test: Test B flooded paddy test; design: key: 0 = no effect, 100 = complete control; conditions: Flood, 250 g ai/ha applied to paddy water at 2-leaf stage; visually evaluated after 13 to 15 days; scale 0 (no effect) to 100 (complete control)
# Protocol: (§2) Plant species in the flooded paddy test selected from rice (Oryza sativa), sedge, umbrella (small-flower umbrella sedge, Cyperus difformis), ducksalad (Heteranthera limosa), and barnyardgrass (Echinochloa crus-galli) were grown to the 2-leaf stage for testing. At time of treatment, test pots were flooded to 3 cm above the soil surface, treated by application of test compounds directly to the paddy water, and then maintained at that water depth for the duration of the test. Treated plants and controls were maintained in a greenhouse for 13 to 15 days, after which time all species were compared to controls and visually evaluated. Plant response ratings, summarized in Table B, are based on a scale of 0 to 100 where 0 is no effect and 100 is complete control. A dash (-) response means no test result.
# [8] = test system: ducksalad (Heteranthera limosa); test: Test B flooded paddy test; design: key: 0 = no effect, 100 = complete control; conditions: Flood, 250 g ai/ha applied to paddy water at 2-leaf stage; visually evaluated after 13 to 15 days; scale 0 (no effect) to 100 (complete control)
# Protocol: as §2
# [9] = test system: rice (Oryza sativa); test: Test B flooded paddy test; design: key: 0 = no effect, 100 = complete control; conditions: Flood, 250 g ai/ha applied to paddy water at 2-leaf stage; visually evaluated after 13 to 15 days; scale 0 (no effect) to 100 (complete control)
# Protocol: as §2
# [10] = test system: barnyardgrass (Echinochloa crus-galli); test: Test B flooded paddy test; design: key: 0 = no effect, 100 = complete control; conditions: Flood, 250 g ai/ha applied to paddy water at 2-leaf stage; visually evaluated after 13 to 15 days; scale 0 (no effect) to 100 (complete control)
# Protocol: as §2
# [11] = test system: Italian ryegrass (Lolium multiflorum); test: Test A postemergence application; conditions: approx. 10 days
# From the text: as §1
# [12] = test system: galium (catchweed bedstraw, Galium aparine); test: Test A postemergence application; conditions: approx. 10 days
# From the text: as §1
# [13] = test system: wheat (Triticum aestivum); test: Test A postemergence application; conditions: approx. 10 days
# From the text: as §1
# [14] = test system: giant foxtail (Setaria faberii); test: Test A postemergence application; conditions: approx. 10 days
# From the text: as §1
# [15] = test system: pigweed (Amaranthus retroflexus); test: Test A postemergence application; conditions: approx. 10 days
# From the text: as §1
# [16] = test system: barnyardgrass (Echinochloa crus-galli); test: Test A postemergence application; conditions: approx. 10 days
# From the text: as §1
# [17] = test system: corn (Zea mays); test: Test A postemergence application; conditions: approx. 10 days
# From the text: as §1
# [18] = test system: ragweed (common ragweed, Ambrosia elatior); test: Test A postemergence application; conditions: approx. 10 days
# From the text: as §1
# [19] = test system: blackgrass (Alopecurus myosuroides); test: Test A postemergence application; conditions: approx. 10 days
# From the text: as §1
# [20] = test system: kochia (Kochia scoparia); test: Test A postemergence application; conditions: approx. 10 days
# From the text: as §1
structure (smiles),measurement,setting,value
"O=c1cccc(Oc2ncc(Cl)cn2)n1-c1cccc(OC(F)(F)F)c1 [Compound 3, 6-[(5-chloro-2-pyrimidinyl)oxy]-1-[3-(trifluoromethoxy)phenyl]-2(1H)-pyridinone]","Plant response rating (0 to 100 scale, 0 no effect, 100 complete control), Ryegrass, Italian",[1]; 1000 g ai/ha,50
same,"Plant response rating (0 to 100 scale, 0 no effect, 100 complete control), Foxtail, Giant",[2]; 1000 g ai/ha,100
same,"Plant response rating (0 to 100 scale, 0 no effect, 100 complete control), Pigweed",[3]; 1000 g ai/ha,70
same,"Plant response rating (0 to 100 scale, 0 no effect, 100 complete control), Barnyardgrass",[4]; 1000 g ai/ha,80
same,"Plant response rating (0 to 100 scale, 0 no effect, 100 complete control), Ragweed",[5]; 1000 g ai/ha,20
same,"Plant response rating (0 to 100 scale, 0 no effect, 100 complete control), Kochia",[6]; 1000 g ai/ha,40
same,"Plant response rating, Sedge, Umbrella",[7],0
same,"Plant response rating, Ducksalad",[8],0
same,"Plant response rating, Rice",[9],0
same,"Plant response rating, Barnyardgrass",[10],0
same,"Plant response rating (0 to 100 scale, 0 no effect, 100 complete control), Ryegrass, Italian",[11]; 1000 g ai/ha,30
same,"Plant response rating (0 to 100 scale, 0 no effect, 100 complete control), Galium",[12]; 1000 g ai/ha,100
same,"Plant response rating (0 to 100 scale, 0 no effect, 100 complete control), Wheat",[13]; 1000 g ai/ha,30
same,"Plant response rating (0 to 100 scale, 0 no effect, 100 complete control), Foxtail, Giant",[14]; 1000 g ai/ha,100
same,"Plant response rating (0 to 100 scale, 0 no effect, 100 complete control), Pigweed",[15]; 1000 g ai/ha,90
same,"Plant response rating (0 to 100 scale, 0 no effect, 100 complete control), Barnyardgrass",[16]; 1000 g ai/ha,70
same,"Plant response rating (0 to 100 scale, 0 no effect, 100 complete control), Corn",[17]; 1000 g ai/ha,20
same,"Plant response rating (0 to 100 scale, 0 no effect, 100 complete control), Ragweed",[18]; 1000 g ai/ha,30
same,"Plant response rating (0 to 100 scale, 0 no effect, 100 complete control), Blackgrass",[19]; 1000 g ai/ha,40
same,"Plant response rating (0 to 100 scale, 0 no effect, 100 complete control), Kochia",[20]; 1000 g ai/ha,90
O=c1cccc(Oc2ncc(Cl)cn2)n1-c1ncc(F)cn1 [Compound 4],"Plant response rating (0 to 100 scale, 0 no effect, 100 complete control), Ryegrass, Italian",[1]; 31 g ai/ha,0
same,"Plant response rating (0 to 100 scale, 0 no effect, 100 complete control), Ryegrass, Italian",[1]; 125 g ai/ha,0
same,"Plant response rating (0 to 100 scale, 0 no effect, 100 complete control), Foxtail, Giant",[2]; 31 g ai/ha,0
same,"Plant response rating (0 to 100 scale, 0 no effect, 100 complete control), Foxtail, Giant",[2]; 125 g ai/ha,20
same,"Plant response rating (0 to 100 scale, 0 no effect, 100 complete control), Pigweed",[3]; 31 g ai/ha,70
same,"Plant response rating (0 to 100 scale, 0 no effect, 100 complete control), Pigweed",[3]; 125 g ai/ha,70
same,"Plant response rating (0 to 100 scale, 0 no effect, 100 complete control), Barnyardgrass",[4]; 31 g ai/ha,0
same,"Plant response rating (0 to 100 scale, 0 no effect, 100 complete control), Barnyardgrass",[4]; 125 g ai/ha,0
same,"Plant response rating (0 to 100 scale, 0 no effect, 100 complete control), Ragweed",[5]; 31 g ai/ha,0
same,"Plant response rating (0 to 100 scale, 0 no effect, 100 complete control), Ragweed",[5]; 125 g ai/ha,0
same,"Plant response rating (0 to 100 scale, 0 no effect, 100 complete control), Kochia",[6]; 31 g ai/ha,0
same,"Plant response rating (0 to 100 scale, 0 no effect, 100 complete control), Kochia",[6]; 125 g ai/ha,70
same,"Plant response rating, Sedge, Umbrella",[7],0
same,"Plant response rating, Ducksalad",[8],0
same,"Plant response rating, Rice",[9],0
same,"Plant response rating, Barnyardgrass",[10],0
same,"Plant response rating (0 to 100 scale, 0 no effect, 100 complete control), Ryegrass, Italian",[11]; 31 g ai/ha,0
same,"Plant response rating (0 to 100 scale, 0 no effect, 100 complete control), Ryegrass, Italian",[11]; 125 g ai/ha,0
same,"Plant response rating (0 to 100 scale, 0 no effect, 100 complete control), Galium",[12]; 31 g ai/ha,30
same,"Plant response rating (0 to 100 scale, 0 no effect, 100 complete control), Galium",[12]; 125 g ai/ha,50
same,"Plant response rating (0 to 100 scale, 0 no effect, 100 complete control), Wheat",[13]; 31 g ai/ha,0
same,"Plant response rating (0 to 100 scale, 0 no effect, 100 complete control), Wheat",[13]; 125 g ai/ha,0
same,"Plant response rating (0 to 100 scale, 0 no effect, 100 complete control), Foxtail, Giant",[14]; 31 g ai/ha,0
same,"Plant response rating (0 to 100 scale, 0 no effect, 100 complete control), Foxtail, Giant",[14]; 125 g ai/ha,0
same,"Plant response rating (0 to 100 scale, 0 no effect, 100 complete control), Pigweed",[15]; 31 g ai/ha,50
same,"Plant response rating (0 to 100 scale, 0 no effect, 100 complete control), Pigweed",[15]; 125 g ai/ha,70
same,"Plant response rating (0 to 100 scale, 0 no effect, 100 complete control), Barnyardgrass",[16]; 31 g ai/ha,0
same,"Plant response rating (0 to 100 scale, 0 no effect, 100 complete control), Barnyardgrass",[16]; 125 g ai/ha,0
same,"Plant response rating (0 to 100 scale, 0 no effect, 100 complete control), Corn",[17]; 31 g ai/ha,0
same,"Plant response rating (0 to 100 scale, 0 no effect, 100 complete control), Corn",[17]; 125 g ai/ha,10
same,"Plant response rating (0 to 100 scale, 0 no effect, 100 complete control), Ragweed",[18]; 31 g ai/ha,10
same,"Plant response rating (0 to 100 scale, 0 no effect, 100 complete control), Ragweed",[18]; 125 g ai/ha,20
same,"Plant response rating (0 to 100 scale, 0 no effect, 100 complete control), Blackgrass",[19]; 31 g ai/ha,20
same,"Plant response rating (0 to 100 scale, 0 no effect, 100 complete control), Blackgrass",[19]; 125 g ai/ha,20
same,"Plant response rating (0 to 100 scale, 0 no effect, 100 complete control), Kochia",[20]; 31 g ai/ha,40
same,"Plant response rating (0 to 100 scale, 0 no effect, 100 complete control), Kochia",[20]; 125 g ai/ha,80
